Test results as given in PubChem BioAssay (NCI).
Where “and” joins values, the source holds several entries; their conditions need not be identical. Equal values may be shown once.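 The compound was tested at five concentrations on cells cultured in 96-well plates, with a 48-hour exposure period. Here, GI50 denotes the concentration required for 50% inhibition of growth. TGI: concentration producing complete growth inhibition.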

How the values were obtained:
Assay in all cases: inhibition of tumour cell growth, NCI panel, 48 h
[1] = tested on: SF-539 CNS
[2] = tested on: SW-620 colon
[3] = tested on: A498 renal
[4] = tested on: HL-60(TB) leukemia
[5] = tested on: DU-145 prostate
[6] = tested on: T-47D breast
[7] = tested on: HOP-62 NSCLC
[8] = tested on: CCRF-CEM leukemia
[9] = tested on: CAKI-1 renal
[10] = tested on: EKVX NSCLC

SMILES	TGI [1] [µM]	TGI [2] [µM]	TGI [3] [µM]	TGI [4]	TGI [5] [µM]	TGI [6] [µM]	TGI [7] [µM]	TGI [8]	TGI [9] [µM]	TGI [10]	GI50 [1] [µM]	GI50 [2] [µM]	GI50 [3]	GI50 [4] [µM]	GI50 [5] [µM]	GI50 [6] [µM]	GI50 [7]	GI50 [8]	GI50 [9] [µM]	GI50 [10] [µM]
COC(=O)c1ccccc1OCc1cc(=O)oc2ccc(C)cc12	78.5	> 100	> 100	> 100 µM	> 100	> 100	> 57.5	> 100 µM	> 100	> 100 µM	–	–	–	–	–	–	–	–	–	–
CC1OC(OC2C[C@](O)(C(=O)CF)Cc3c(O)c4c(c(O)c32)C(=O)c2ccccc2C4=O)CC(N)C1O (some centres undefined)	1.33	0.741	1.28	< 0.0291 µM	1.14	0.151	0.0462	0.0133 µM	0.0763	4.64 µM	–	–	–	–	–	–	–	–	–	–
O=C(O)C1OC1(c1cccc(Cl)c1)c1ccccc1Cl (centres undefined)	43.7	> 100	> 100	55.2 µM	77.5	> 100	61.3	53.3 µM	81.8	68.4 µM	–	–	–	–	–	–	–	–	–	–
Cc1ccc(C(CC(=O)c2ccccc2)C2C(=O)NC(=O)NC2=O)cc1 (centres undefined)	> 100	> 100	> 100	> 100 µM	> 100	> 100	> 100	> 100 µM	> 100	> 100 µM	> 100	> 100	> 100 µM	> 100	> 100	> 100	> 100 µM	> 100 µM	> 100	> 100
C[C@]12CCc3sc(NCCc4ccccc4)nc3C1=CC[C@@H]1[C@@H]2CC[C@]2(C)C(=O)CC[C@@H]12	3.62	5.28	> 100	9.1 µM	> 100	25.2	> 100	40.4 µM	11.1	> 100 µM	1.69	2.3	4.43 µM	2.93	3.64	3.05	8.52 µM	2.63 µM	3.13	90.1
COc1cc2oc3cc(=O)cc4oc(-c5ccccc5)cc(c2c2c1CCC(c1ccccc1)O2)c43 (centres undefined)	> 100	> 100	> 100	62.7 µM	> 100	54.8	> 100	> 100 µM	> 100	> 100 µM	–	–	–	–	–	–	–	–	–	–
CC(=O)OC[C@]12CC[C@@H](C(=O)CBr)[C@@H]1[C@H]1CC[C@@H]3[C@@]4(C)CCCNC(C)(C)[C@@H]4CC[C@@]3(C)[C@]1(C)CC2	6.57	8.06	28.5	4.95 µM	14.2	6.92	28.2	3.29 µM	4.13	25.2 µM	2.42	2.77	15 µM	2.11	4.1	2.31	14.3 µM	1.06 µM	1.81	12.5
CCOC(=O)c1c2c(n(Cc3ccc(Cl)cc3Cl)c1C)-c1nc[nH]c1C(=O)C2=O	16.4	18.2	36.1	5.14 µM	24.1	5.03	32.6	2.29 µM	31.8	27.4 µM	4.4	6.19	19.7 µM	2.18	11.8	1.65	16.4 µM	0.651 µM	13.4	13
N#CCCN(CCCN(CCCN(C(=O)Nc1ccccc1)c1ccccc1)C(=O)Nc1ccccc1)C(=O)Nc1ccccc1	> 100	> 100	> 100	> 8.75 µM and 15.6 µM	> 100	> 100	> 100	> 8.75 µM and 43.1 µM	> 100	> 8.75 µM and 70.5 µM	> 100	> 100	–	5.2	> 100	> 100	> 100 µM	4.35 µM	> 100	16.3
c1cc2n(n1)CCN2	4990	> 10000	6270	5150 µM	> 10000	> 10000	> 9550	6680 µM	4680	6630 µM	–	–	–	–	–	–	–	–	–	–
O=c1ccn(C2CC(O)C(CO)O2)c(=O)[nH]1 (centres undefined)	> 5000	> 5000	> 5000	> 5000 µM	> 5000	> 5000	> 5000	838 µM	> 5000	> 5000 µM	> 5000	> 5000	> 5000 µM	> 5000	> 5000	> 5000	> 5000 µM	95.8 µM and 110 µM	> 5000	> 5000
O=C(Cn1c(=O)c(-c2ccccc2)nc2ccccc21)Nc1ccc(F)cc1	28.7	> 100	97.9	48 µM	> 100	> 100	> 100	> 100 µM	> 100	> 100 µM	4.03	67	13.7 µM	14.1	43.4	50.8	49.8 µM	6.46 µM	> 100	87.1
COc1cc(NC(C)CCCN)c2ncccc2c1 (centres undefined)	> 100	> 100	> 100	> 37.3 µM and 28.9 µM	> 100	> 53.2	> 100	> 100 µM	> 100	> 100 µM	–	–	30.6 µM and 76.7 µM	–	–	–	43.6 µM and > 91.6 µM	–	–	–
COc1ccc2c(=O)cc(-c3ccncc3)oc2c1OC	–	> 100	49.8	50.6 µM	> 100	> 100	> 100	71.1 µM	> 100	> 100 µM	–	–	–	–	–	–	–	–	–	–
Cc1cc(Cl)ccc1Nc1nc(C(F)(F)F)ccc1C(=O)N/N=C/c1ccc(Cl)cc1	3.96	11	6.13	4.63 µM	13.1	9.26	9.22	3.39 µM	3.85	4.45 µM	1.7	2.15	1.91 µM	2.1	2.56	2.17	2.33 µM	0.384 µM	1.25	1.25
COc1cc2ccccc2oc1=O	> 100	> 100	> 100	> 100 µM	> 100	> 100	> 100	> 100 µM	> 100	> 100 µM	–	–	–	–	–	–	–	–	–	–
CC1OC(n2c3ccccc3c3c4c(c5c6ccccc6[nH]c5c32)C(=O)N(CCN[C@@H]2CCC[C@H]2N)C4=O)CC(O)C1O (some centres undefined)	–	5.71	8.24	8.23 µM	8.31	6.46	7.24	6.27 µM	12.9	8.35 µM	–	1.05	1.93 µM	1.26	2.22	1.04	1.74 µM	1.25 µM	6.24	1.8
O=C(Nc1ccncc1)C(=O)c1cn(Cc2ccc(Cl)cc2)c2ccccc12	0.0788	> 100	> 100	0.237 µM	> 65	> 100	> 100	> 100 µM	> 100	> 100 µM	0.0278	0.0332	0.544 µM	0.0327	0.051	0.0436	0.0597 µM	0.0331 µM	0.0355	0.261
Cc1cc(NCCN(C(C)C)C(C)C)nc(/N=C(\N)Nc2ccc(Cl)c(C(F)(F)F)c2)n1	0.329	1.62	1.42	0.952 µM	3.04	0.361	2	1.47 µM	1.02	3.75 µM	0.179	0.532	0.139 µM	0.38	1.47	0.183	0.748 µM	0.335 µM	0.427	1.48
O=[N+]([O-])c1ccc2c(c1)Cc1cc(N=Cc3ccc4c(c3)OCO4)ccc1-2	> 100	> 100	> 100	> 100 µM	> 100	> 100	> 100	> 100 µM	> 100	> 100 µM	–	–	–	–	–	–	–	–	–	–
C=CCC1(O)c2ccccc2C(=O)c2c(NCCN(CC(=O)OCC)CC(=O)OCC)cccc21 (centres undefined)	> 100	> 100	> 100	> 100 µM	> 100	> 100	> 100	> 100 µM	> 100	> 100 µM	> 100	> 100	> 100 µM	71.9	> 100	80.6	> 100 µM	> 100 µM	> 100	> 100
CNC(=O)c1cccc2cc(Oc3ccnc4cc(OCC5(N)CC5)c(OC)cc34)ccc12	6.61	20.5	3.12	26.3 µM	25.5	39.2	27.6	29.7 µM	25	34.5 µM	0.403	5.96	0.167 µM	8.26	12.1	17.8	10.7 µM	4.78 µM	11.9	14.6
O=CN/C=C/c1cccc(O)c1	> 83	98.8	> 76.8	> 100 µM	> 97.5	98.7	65.8	> 100 µM	> 79.7	> 96.6 µM	–	–	–	–	–	–	–	–	–	–
Nc1nc(N)c2nc(CNc3ccc(C(=O)NC(CC(=O)O)C(=O)O)cc3)cnc2n1 (centres undefined)	> 100	> 100	> 100	> 100 µM	> 100	> 100	> 100	> 100 µM	12.4	> 100 µM	3.93	0.274	13.3 µM	0.756	0.682	> 65.6	6.4 µM	0.422 µM	0.481	1.57
CCC1CN2C(=N1)c1ccccc1-c1cc(Cl)ccc12 (centres undefined)	14.8	15.5	12.1	9.34 µM	6.26	23	8.87	4.79 µM	46.7	26.6 µM	3.88	2.72	3.01 µM	1.85	2.31	3.52	2.97 µM	2.02 µM	4.32	4.74
CNCCCn1c2c(c3ccc([N+](=O)[O-])cc3c1=O)C(=O)c1cc(OC)cnc1-2	0.567	1.12	0.276	0.921 µM	1.15	0.283	0.139	0.625 µM	0.342	5.83 µM	0.0505	0.0349	0.0338 µM	0.0413	0.052	0.0309	0.03 µM	0.0365 µM	0.0346	0.273
Cc1ccc(-c2nc(C#N)c(S(=O)(=O)n3nc(C)cc3N)o2)cc1	17.4	–	32.9	5.42 µM	20.2	5.76	35.1	7.83 µM	14.2	55 µM	5.07	–	16.3 µM	2	7.8	2.27	17.7 µM	2.55 µM	4.3	21.8
CC1CC2OC(=O)C(C)C2CC2(C)C(OC3OC(CO)C(O)C(O)C3O)OCCC12 (centres undefined)	> 100	> 100	> 100	> 100 µM	> 100	> 100	> 100	> 100 µM	> 100	> 100 µM	–	–	–	–	–	–	–	–	–	–
COc1cccc2c1ccc1nc3cccc(C(=O)N[C@H](C)CN(C)C)c3nc12	1.8	0.694	0.235	1.98 µM	3.71	0.974	0.787	7 µM	–	3.16 µM	0.157	0.039	0.0793 µM	0.32	0.0735	0.159	0.084 µM	0.12 µM	–	0.141
